The source of these data is patent publication US20030125283A1, “Therapy of proliferative disorders by direct irradiation of cell nuclei with tritiated nuclear targetting agents” (priority 2002, published 2003).

Each structure is given as a SMILES string.

In data set [1] the test system is 4047 colon cancer cells, BT-20 and MCF-7 breast cancer cell lines. Nature of the data set: Killing of tumor cells in vitro, cell counts and trypan blue viability. It counts as cell-based, rat (4047), human (BT-20. As for the experimental part: In-vitro experiments were performed using cultured 4047 colon cancer cells as described in Gatenby, R A and Taylor D D (1990) Cancer Res. 50: 7997-8001. 4047 cells (2×10^4) were placed in each well of a 6-well plate and incubated overnight in 1 ml of RPMI-1640 media with 10% fetal bovine serum (FBS). The cells were divided into 4 groups as follows:
Group 4: incubated in unlabelled thymidine at concentrations 1, 2, 3, and 4 mM (so that concentration of thymidine was identical to that of the labeled thymidine in Group 3).
Each group was incubated for 24 hours and then washed 3 times in sterile physiologic saline (PBS). One milliliter of unlabelled media was added and the cells incubated for an additional 48 hours. Subsequently, the cells were washed with PBS, lifted with trypsin, and counted with a hematocytometer. Percent cell viability was determined by exclusion of trypan blue. All measurements were performed in triplicate. Once a dose-response curve was established in the 4047 cell line, identical experiments were conducted with the BT-20 and MCF-7 breast cancer cell lines.

For data set [2], the system named is BT-20 tumor xenografts. Kind of data set: Reduction in tumor volume in the half-life study (Example 7). Particulars: each treatment subgroup, intratumoral 4 to 50 μCi/g tumor. It counts as in vivo, Nu/Nu female nude mice. The protocol:
BT-20 tumor cells (10 million cells in 0.2 ml PBS) are inoculated into the right flank of each mouse as in Example 4 above. The tumors are grown to volumes of 300-500 mm^3 over the course of 3-4 weeks.
After tumors in all mice have reached the required 300-500 mm^3 volume, each group of 60 is divided into ten subgroups of six animals each.
Reduction in tumor volume is estimated as in Example 4 for each treatment subgroup over the course of the experiment. The data is analyzed by calculating the percentage of tumor reduction as in Example 4. The error in this measurement is determined from the measured standard deviation and the standard formula for calculating the error for a ratio given above in Equation 1. Systemic toxicity is not directly measured, but is monitored as described above in Example 4.

For data set [3], the system named is Human BT-20 breast cancer tumors. Kind of data set: Preliminary in vivo dose-response curve, single intratumoral injections (Example 8). Also noted: species or system Nu/Nu female nude mice. Particulars: single intratumoral injection; theoretical. From the text: Six experimental groups of 18 4-6 week old Nu/Nu female nude mice (Charles River Laboratory, Wilmington, Mass.) are used. In each of the six groups an additional group of 6 mice serves as an uninoculated control. Thus the total number of experimental mice is 108 and total number of uninoculated control mice is 36.
Each experimental group is then divided into two subgroups: one treatment subgroup of 12 mice and one untreated (but inoculated) control subgroup of six mice. […] Because the tumors have variable growth rates, subgroups are chosen such that the mean tumor volume and standard deviation are similar for each subgroup. […]
The mice are monitored daily and the tumors measured daily by microcaliper for a minimum of 3 weeks or until tumor re-growth begins. Tumor volumes are calculated as in Example 2. Three daily tumor volumes are measured for the first group so that the error in the volume measurement can be determined as in Example 4. The mean volumes and standard deviations are calculated and growth rate curves are monitored during the experiment. The data are expressed as percent difference of the tumor volume at any given time point to its pre-injection volume.
Tumor volume data is analyzed as described above in the in Example 4 by calculating percent tumor reduction and initial tumor volume. Systemic toxicity is not directly measured, but is monitored as described above in Example 4. […]

Data set [4] relates to BT20 human breast cancer tumors. Nature of the data set: Efficacy of a multiple dose regimen, intratumoral versus i.v. (Example 9). It counts as in vivo, female nude mice. As for the experimental part:
To accomplish this, the superposition method of Sharget and Yu, supra, is used to extend the two compartment pharmacokinetic model presented in Example 6 from the single dose to the multidose case. […] Using the superposition method, the maximum and minimum of the multi-dose regimen can be averaged together to give an estimate of the mean concentration in the tumor during multiple injections (Sharget and Yu, supra).
This dose regimen is tested experimentally as follows.
60 4-6 weeks old female nude mice in 2 groups of 30 mice are used. Each group of 30 mice is further divided into two subgroups (10 control mice and 20 treatment mice). As before, the treatment mice will be divided into subgroups that consist of similar distribution of tumor volumes. In each treatment subgroup, 10×10^6 BT20 human breast cancer cells are inoculated subcutaneously in flanks of the mice as in Example 4. […] Tumors are grown to 300-500 mm^3 in volume.
The mice from one treatment subgroup receive an intratumoral injection of 16 μCi/20 μl normal saline (a dose of 32 μCi/gram of tumor). The dose is repeated every 7 days for a total of 3 doses.

For data set [5] the following is noted: mouse, in vivo.
Method: In the treatment and control groups, 10×10^6 BT-20 human breast cancer cells are inoculated subcutaneously into the flanks of the mice. Animal weights are recorded daily and animals are closely monitored for signs of illness. Approximate tumor volumes are measured every other day using calipers to measure the height (H), width (W), and length (L) of each tumor. Tumor volumes are calculated according to the formula for volume of an ellipsoid V=πHWL/6. Tumors grow to 300-500 mm^3 in approximately 3-4 weeks after inoculation. A set of 6 measurements per day is made on a single tumor in the control group on one day of each week to determine the standard deviation versus volume in the volume measurements.
Tumor growth is monitored for a total of 4 weeks, whereupon the mice are sacrificed and the tumors and other tissue are harvested.
Lines are drawn along the anterior-posterior length of the harvested tumors. In addition, the top, left and right of the harvested tumors is marked. […] A portion of the sample in is placed in Hionic-Fluor LSC cocktail and the radioactivity counted in a scintillation counter. […]
Ten to fifteen microliters of the dissolved tissue or is spotted on a silica gel TLC plate, and the plate is placed in a chromatography chamber containing ˜200 ml of eluant so the dissolved tissue sample is just above the eluant surface. […] The radioactivity is counted in the scintillation counter. […]
The conditions of data set [6]: Caro, supra; cited from earlier work.

With `Cc1cn([C@H]2C[C@H](O)[C@@H](CO)O2)c(=O)[nH]c1=O` [^3H-thymidine], in data set [1] (0.1 μCi/ml (concentration used only with 4047 cells)), the antitumor effect entry is recorded as “significant antitumor effect”. The “viable tumor cells identified” value in data set [1] (populations exposed to 1.0 μCi/ml or greater, in most experiments) was “few viable tumor cells”. Moreover, the tumor volume entry in data set [2] is “significant reduction in tumor volume”. Further, the “ED90, minimal effective dose for eradicating tumors in 90% of the treated mice” value in data set [3] was 16 μCi/g tumor. Further, the “r, tumor regression” value in data set [4] (i.v. injection 16 μCi (~800 μCi/kg body wt.) once a week for three weeks, after three doses) is “approximately 0.8”; in data set [4] (intratumoral 16 μCi/20 μl saline (32 μCi/gram of tumor) every 7 days, 3 doses), “approximately zero”. Moreover, the “share of injected dose retained in the tumor” value in data set [5] is “about 10%”.

Regarding `[3H]O[3H]` [^3H-water, reference compound], the cytotoxicity result in data set [1] (0.1-3.0 μCi/ml media, 24 hours incubation, then 48 hours in unlabelled media, ^3H-water effect particularly above 1 μCi/ml, ^3H-thymidine compared with ^3H-water at each dose (p<<0.01)) is “slight cytotoxicity”.

`[3H]` [tritium]: the effective biological half-life entry in data set [6] is “approximately 12 days”.

Consider `Cc1cn([C@H]2C[C@H](O)[C@@H](CO)O2)c(=O)[nH]c1=O` [Unlabelled thymidine, thymidine, reference compound], for which the “effect on tumor growth” value in data set [1] (unlabelled thymidine 1, 2, 3, and 4 mM, 24 hours incubation, then 48 hours in unlabelled media) is listed as “no effect on tumor growth”.
